Experimental data as given in paper PMC6337391 (Molecules, 2019).

Molecular target: T1, human h-15-LOX-1 (Homo sapiens, UniProt P16050)
T1 sequence (P16050 1-662): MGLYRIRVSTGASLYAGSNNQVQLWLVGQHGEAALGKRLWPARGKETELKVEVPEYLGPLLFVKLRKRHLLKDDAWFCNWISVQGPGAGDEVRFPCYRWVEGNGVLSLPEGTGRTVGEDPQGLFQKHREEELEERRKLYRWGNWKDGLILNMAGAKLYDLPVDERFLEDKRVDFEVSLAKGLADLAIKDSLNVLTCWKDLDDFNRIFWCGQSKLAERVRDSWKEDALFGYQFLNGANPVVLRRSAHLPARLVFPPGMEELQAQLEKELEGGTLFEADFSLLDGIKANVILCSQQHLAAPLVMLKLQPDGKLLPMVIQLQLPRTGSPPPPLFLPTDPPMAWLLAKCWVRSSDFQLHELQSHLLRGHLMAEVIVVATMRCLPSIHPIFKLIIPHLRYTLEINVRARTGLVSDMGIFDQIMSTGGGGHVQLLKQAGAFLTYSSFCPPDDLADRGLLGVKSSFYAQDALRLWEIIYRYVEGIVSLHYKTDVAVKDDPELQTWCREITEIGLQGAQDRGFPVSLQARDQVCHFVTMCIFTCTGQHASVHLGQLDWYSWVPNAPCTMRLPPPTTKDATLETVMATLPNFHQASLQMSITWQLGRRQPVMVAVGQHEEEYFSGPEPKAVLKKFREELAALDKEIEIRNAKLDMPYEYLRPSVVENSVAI
Test: Human h-15-LOX-1 screening UV assay
Assay type: biochemical
Conditions: for h-15-LOX-1 inhibitory potency ranking at 50 µM (in words): 10 min pre-incubation
Procedure: The residual enzyme activity was measured after 10 min pre-incubation with the tested compounds at room temperature. […] Compound c11 follows.
The assay buffer consists of HEPES titrated to pH 7.5 using a concentrated aqueous solution of NaOH. Linoleic acid (LA) was used as a substrate. The linear absorbance increase in absence of the inhibitor was set as 100%, whereas the absorbance increase in absence of the enzyme was set to 0%. All experiments were performed in triplicate and the average triplicate values and their standard deviations are plotted. The vertical axis describes the residual enzyme activity percent % of the human h-15-LOX-1, whereas the horizontal axis describes the concentration of 50 µM of the compounds. The half maximal inhibitor concentration (IC50) of the inhibitors for h-15-LOX-1 was determined using the same assay (Figure 6 and Figure 7).

Compound | h-15-LOX-1 inhibitory potency ranking at 50 µM (in words) | IC50 (read-out: h-15-LOX-1 Inhb. IC50)
O=C(/C=C/C=C/c1ccc([N+](=O)[O-])cc1)c1ccc(OCCCOc2ccc(C(=O)/C=C/C=C/c3ccc([N+](=O)[O-])cc3)cc2)cc1 [c11, (2E,2′E,4E,4′E)-1,1′-((propane-1,3-diylbis(oxy))bis(4,1-phenylene))bis(5-(4-nitrophenyl)penta-2,4-dien-1-one)] | (2nd potent at 50 μM) | 
O=C(/C=C/c1cccc2ccccc12)c1ccccc1O [b4, (E)-1-(2-hydroxyphenyl)-3-(naphthalen-1-yl) prop-2-en-1-one] | highest activity within the group | 9.5 µM
